# Source: patent publication US20250144067A1, “PERSONALIZED STARVATION THERAPY FOR CANCER” (Faeth Therapeutics, Inc., priority 2021, published 2025)
# Counter-ions that a name gives are not always drawn. Like-named read-outs stand apart in the source and are kept apart here. Ends that are not written are not given here.
# Tests used:
# [1] = test system: NCI-H292 lung cancer cells; experiment: FDA drug screening, complete media vs cholesterol-free media with simvastatin (TABLE 2); type: cell-based, human
# [2] = test system: NCI-H292 lung cancer cells; experiment: FDA drug screening, complete media vs cholesterol-free media without statin (TABLE 1); type: cell-based, human
# [3] = NCI-H292 cells, FDA drug library screen, cholesterol-free media with simvastatin 0.04 μM
# [4] = NCI-H292 cells, FDA drug library screen, complete media
# [5] = complete media vs cholesterol-free media + simvastatin (0.04 μM), >0 enhanced anti-cancer activity, about 0 neutral, <0 antagonist
# [6] = Complete minus Cholesterol-free, greater than 0 enhanced anti-cancer activity, about 0 neutral, below 0 antagonist
# [7] = NCI-H292 cells, FDA drug library screen, cholesterol-free media without statin
# [8] = NCI-H292 cells, drug in cholesterol-free media with simvastatin 0.04 μM
# [9] = NCI-H292 cells, drug in complete media
# [10] = NCI-H292 cells, cholesterol-free media without statin, FDA drug library screen
# [11] = NCI-H292 cells, complete media, FDA drug library screen
# [12] = NCI-H292 cells, FDA library drug in cholesterol-free media with simvastatin 0.04 μM
# [13] = NCI-H292 cells, FDA library drug in complete media
# [14] = Complete minus Cholesterol-free, greater than 0 enhanced anti-cancer activity, about 0 neutral, below 0 antagonists
# [15] = NCI-H292 cells in cholesterol-free media without statin
# [16] = NCI-H292 cells in complete media
# [17] = Complete minus Cholesterol-free, […]
# [18] = NCI-H292 cells, cholesterol-free media with simvastatin 0.04 μM, cell growth value in FDA drug screen
# [19] = NCI-H292 cells, complete media, cell growth value in FDA drug screen
# [20] = complete media minus cholesterol-free media + simvastatin, >0 enhanced anti-cancer activity, about 0 neutral, <0 antagonist
# [21] = Complete minus Cholesterol-free, >0 enhanced anti-cancer activity, about 0 neutral, <0 antagonist
# [22] = NCI-H292 cells, cholesterol-free media with simvastatin 0.04 μM, FDA drug library screen (TABLE 2)
# [23] = NCI-H292 cells, complete media, FDA drug library screen (TABLE 2)
# [24] = complete media minus cholesterol-free media + simvastatin (0.04 μM), >0 enhanced anti-cancer activity, about 0 neutral, <0 antagonist
# [25] = NCI-H292 cells, cholesterol-free media without statin
# [26] = complete vs cholesterol-free media, greater than 0 enhanced anti-cancer activity, about 0 neutral, below 0 antagonists
# [27] = complete media vs cholesterol-free media + simvastatin (0.04 μM), […]
compound,measurement,setting,value
N[C@@H](Cc1c[nH]c2ccc(O)cc12)C(=O)O [L-5-Hydroxytryptophan],Cholesterol-free media + simvastatin (0.04 μM),[1]; [3],1.408
same,Complete Media,[1]; [4],1.327
same,Difference,[1]; [5],−0.08
same,Difference,[2]; [6],−0.10
same,Cholesterol-free,[2]; [7],1.028
same,Complete,[2]; [4],0.9245
CCc1cc2c(cc1N1CCC(N3CCOCC3)CC1)C(C)(C)c1[nH]c3cc(C#N)ccc3c1C2=O [Alectinib (Hydrochloride)],Cholesterol-free media + simvastatin (0.04 μM),[1]; [8],0.8676
same,Complete Media,[1]; [9],0.6682
same,Difference,[1]; [5],−0.20
same,Cholesterol-free,[2]; [10],0.7945
same,Complete,[2]; [11],1.394
same,Difference,"[2]; complete vs cholesterol-free media, >0 enhanced anti-cancer activity, about 0 neutral, <0 antagonist",0.60
Tamoxifen (Citrate),Cholesterol-free media + simvastatin (0.04 μM),[1],0.9205
same,Complete Media,[1],0.7671
same,Difference,[1],−0.15
same,Cholesterol-free,[2],0.4962
same,Complete,[2],0.576
same,Difference,[2],0.08
C[C@H](Nc1ncnc2nc[nH]c12)c1cc2cccc(Cl)c2c(=O)n1-c1ccccc1 [Duvelisib],Cholesterol-free media + simvastatin (0.04 μM),[1]; [12],1.228
same,Complete Media,[1]; [13],0.8817
same,Difference,[1]; [5],−0.35
same,Difference,[2]; [14],−0.51
same,Cholesterol-free,[2]; [15],1.444
same,Complete,[2]; [16],0.9349
Br.CCN1C[C@]2(OC(=O)c3ccccc3NC(C)=O)CC[C@H](OC)[C@@]34[C@@H]2C[C@@H]([C@@H]13)[C@@]1(O)C[C@H](OC)[C@H]2C[C@@H]4[C@]1(O)[C@H]2OC [Lappaconitine (hydrobromide)],Cholesterol-free media + simvastatin (0.04 μM),[1]; [3],1.123
same,Complete Media,[1]; [4],1.322
same,Difference,"[1]; complete media minus cholesterol-free media + simvastatin, […]",0.20
same,Difference,[2]; [17],−0.05
same,Cholesterol-free,[2]; [10],1.017
same,Complete,[2]; [11],0.9704
CS(=O)(=O)CCNCc1ccc(-c2ccc3ncnc(Nc4ccc(OCc5cccc(F)c5)c(Cl)c4)c3c2)o1 [Lapatinib],Cholesterol-free media + simvastatin (0.04 μM),[1]; [18],0.4073
same,Complete Media,[1]; [19],0.4535
same,Difference,[1]; [20],0.05
same,Difference,[2]; [21],−0.07
same,Cholesterol-free,[2]; [10],0.3435
same,Complete,[2]; [11],0.2753
CS(=O)(=O)n1cc2c(n1)CN([C@H]1CO[C@H](c3cc(F)ccc3F)[C@@H](N)C1)C2 [Omarigliptin],Cholesterol-free media + simvastatin (0.04 μM),[1]; [12],1.764
same,Complete Media,[1]; [13],1.42
same,Difference,[1]; [5],−0.34
same,Difference,[2]; [14],−0.63
same,Cholesterol-free,[2]; [15],1.475
same,Complete,[2]; [16],0.8446
COC(=O)C[C@](O)(CCCC(C)(C)O)C(=O)O[C@@H]1C(OC)=C[C@]23CCCN2CCc2cc4c(cc2[C@H]13)OCO4 [Homoharringtonine],Cholesterol-free media + simvastatin (0.04 μM),[1]; [22],0.0331
same,Complete Media,[1]; [23],0.0063
same,Difference,[1]; [24],−0.03
same,Difference,[2]; [21],−0.02
same,Cholesterol-free,[2]; [10],−0.02013
same,Complete,[2]; [11],−0.04264
Cc1c(C(=O)NN2CCCCC2)nn(-c2ccc(Cl)cc2Cl)c1-c1ccc(Cl)cc1 [Rimonabant (Hydrochloride)],Cholesterol-free media + simvastatin (0.04 μM),[1]; [18],0.8204
same,Complete Media,[1]; [19],0.8385
same,Difference,[1]; [20],0.02
same,Cholesterol-free,[2]; [25],1.291
same,Complete,"[2]; NCI-H292 cells, complete media",0.882
same,Difference,[2]; [26],−0.41
CC(=O)Nc1cccc(-n2c(=O)n(C3CC3)c(=O)c3c(Nc4ccc(I)cc4F)n(C)c(=O)c(C)c32)c1 [Trametinib (DMSO solvate)],Cholesterol-free media + simvastatin (0.04 μM),[1]; [3],0.4848
same,Complete Media,[1]; [4],0.3787
same,Difference,[1]; [5],−0.11
same,Difference,[2]; [21],0.00
same,Cholesterol-free,[2]; [10],0.2835
same,Complete,[2]; [11],0.2824
CCOCCn1c(C2CCN(CCc3ccc(C(C)(C)C(=O)O)cc3)CC2)nc2ccccc21 [Bilastine],Cholesterol-free media + simvastatin (0.04 μM),[1]; [3],1.167
same,Complete Media,[1]; [4],1.071
same,Difference,[1]; [5],−0.10
same,Difference,[2]; [21],−0.27
same,Cholesterol-free,[2]; [25],1.435
OC(CCCN1CCCCC1)(c1ccccc1)c1ccccc1 [Diphenidol (hydrochloride)],Cholesterol-free media + simvastatin (0.04 μM),[1]; [3],0.9412
same,Complete Media,[1]; [4],1.206
same,Difference,[1]; [20],0.26
same,Cholesterol-free,[2]; [25],1.3
same,Complete,"[2]; NCI-H292 cells, complete media",0.8776
same,Difference,[2]; [26],−0.42
CC(=O)[C@@]1(O)CC[C@H]2[C@@H]3CCC4=CC(=O)CC[C@]4(C)[C@H]3CC[C@@]21C [17-Hydroxyprogesterone],Cholesterol-free media + simvastatin (0.04 μM),[1]; [3],0.9953
same,Complete Media,[1]; [4],0.8962
same,Difference,[1]; [27],−0.10
same,Difference,[2]; [17],−0.02
same,Cholesterol-free,[2]; [10],1.202
same,Complete,[2]; [11],1.185
CC1(C)O[C@@H]2C[C@H]3[C@@H]4CCC5=CC(=O)C=C[C@]5(C)[C@H]4[C@@H](O)C[C@]3(C)[C@]2(C(=O)CO)O1 [Desonide],Cholesterol-free media + simvastatin (0.04 μM),[1]; [18],0.6303
same,Complete Media,[1]; [19],0.7658
same,Difference,[1]; [20],0.14
same,Difference,[2]; [21],−0.07
same,Cholesterol-free,[2]; [10],0.6524
same,Complete,[2]; [11],0.5811
CCCCc1oc2ccc(NS(C)(=O)=O)cc2c1C(=O)c1ccc(OCCCN(CCCC)CCCC)cc1 [Dronedarone],Cholesterol-free media + simvastatin (0.04 μM),[1]; [3],0.4908
same,Complete Media,[1]; [4],0.8741
same,Difference,[1]; [20],0.38
same,Difference,[2]; [6],−0.14
same,Cholesterol-free,[2]; [7],1.006
same,Complete,[2]; [4],0.8674
COc1ccccc1O [Guaiacol],Cholesterol-free media + simvastatin (0.04 μM),[1]; [12],2.295
same,Complete Media,[1]; [13],1.473
same,Difference,[1]; [5],−0.82
same,Difference,[2]; [21],−0.02
same,Cholesterol-free,[2]; [10],1.281
same,Complete,[2]; [11],1.265
CNC(=O)c1cc(Oc2ccc(NC(=O)Nc3ccc(Cl)c(C(F)(F)F)c3)c(F)c2)ccn1 [Regorafenib (monohydrate)],Cholesterol-free media + simvastatin (0.04 μM),[1]; [12],1.311
same,Complete Media,[1]; [13],0.728
same,Difference,[1]; [5],−0.58
same,Cholesterol-free,[2]; [25],1.026
same,Complete,"[2]; NCI-H292 cells, complete media",0.6282
same,Difference,[2]; [26],−0.40
C=CC1=C(C(=O)O)N2C(=O)[C@@H](NC(=O)/C(=N\O)c3csc(N)n3)[C@H]2SC1 [Cefdinir],Cholesterol-free media + simvastatin (0.04 μM),[1]; [8],1.206
same,Complete Media,[1]; [9],0.987
same,Difference,[1]; [5],−0.22
same,Difference,[2]; [21],−0.24
same,Cholesterol-free,[2]; [25],1.244
same,Complete,"[2]; NCI-H292 cells, complete media",0.9998
"Argipressin (CYFQNCPRG; not fully specified (C-terminus, bridges); cysteine pairing not given here; UniProt P01185 20-28, looked up)",Cholesterol-free media + simvastatin (0.04 μM),[1]; [12],1.506
same,Complete Media,[1]; [13],1.167
same,Difference,[1]; [27],−0.34
same,Difference,[2]; [17],−0.56
same,Cholesterol-free,[2]; [15],1.358
same,Complete,[2]; [16],0.7951
C[N+]1(C)CCC(OC(=O)C(O)(c2ccccc2)C2CCCC2)C1 (stereo not shown) [Glycopyrrolate],Cholesterol-free media + simvastatin (0.04 μM),[1]; [3],2.314
same,Difference,[1]; [24],−1.08
same,Difference,[2]; [21],0.02
same,Cholesterol-free,[2]; [10],0.8111
same,Complete,[2]; [11],0.8296
C[C@@H](O)[C@H]1C(=O)N2C(C(=O)O)=C(SCCN=CN)C[C@H]12 [Imipenem monohydrate],Cholesterol-free media + simvastatin (0.04 μM),[1]; [22],0.9916
same,Complete Media,[1]; [23],0.9548
same,Difference,[1]; [24],−0.04
same,Difference,[2]; [21],−0.03
same,Cholesterol-free,[2]; [10],1.1
same,Complete,[2]; [11],1.066
